Laboratory results: patent US5273989A, “3,5-disubstituted 2-isoxazolines and isoxazoles, agents containing them and their use” (Hoechst Aktiengesellschaft, priority 1990, dated 1993)
Where a name gives a salt, the structure may show the parent alone. Read-outs that look alike come from different tables or passages of the source.

Columns and labels:
[1] = system: high affinity 3H-D-aspartate absorption, synaptic vesicles (synaptosomes) from rat cortex; assay: "High affinity" absorption of 3H-aspartate in a vesicle preparation from rat brain; format: biochemical; conditions: for Stimulation of the 3H-D-aspartate absorption, Stimulation (%): relative to control values (100%)
Method: 1. "High affinity" absorption of ^3 H-aspartate in a vesicle preparation from rat brain.
Test principle: Fresh synaptic vesicles (synaptosomes) from rat cortex are incubated with buffer solution and ^3 H-D-aspartate and ^3 H-D-aspartate in the vesicles is measured. Preparations which in comparison to control synaptosomes increase the high affinity ^3 H-D-aspartate absorption and those which prevent the loss of ^3 H-D-aspartate by reliberation are regarded as particularly interesting.
Experimental protocol: The experiments for ^3 H-D-aspartate absorption were carried out by the method of Anand et al. (Biochem. Pharmacol., 35 (1986), 1055-1057). The synaptic vesicles were dissected out of cerebral cortex from male Sprague-Dawley rats. The preparations were tested at four concentrations as double samples in parallel with control samples containing buffer. The incubation medium (pH 7.4) contains: 1.2 mM KH2 PO4, 5 mM KCl, 5 mM pyruvate, 1.2 mM glucose, 1.2 mM MgCl2, 114 mM NaCl, 25 mM NaHCO3. For the non-specific ^3 H-D-aspartate absorption, NaCl was replaced by 114 mM choline chloride and NaHCO3 by 25 mM KHCO3. An aliquot of the vesicle suspension (about 25 μg/ml of test solution) was added to the test sample which was temperature controlled at 37° C. and aerated with Carbogen (5% CO2, 95% O2) and preincubated for 2 minutes. The three minutes incubation for the amino acid absorption was started by addition of 50 μl of ^3 H-D-aspartate (specific activity 25 Ci/mmol, 10 pmol/ml of test solution). The vesicles were separated from the incubation medium by filtration and additional washing of the adhering labeled amino acids using a Titertek cell harvester (Flow Laboratories, Meckenheim). The ^3 H-D-aspartate absorption was measured by means of a liquid scintillation counter (Canberra-Packard, Model 1500, Frankfurt).
The preparation activity is indicated in percent of the specific ^3 H-D-aspartate absorption, relative to control values (100%), in Table 3. Adenosine triphosphate (ATP) was used for comparison as the standard substance (see Table 3) and at 1 mM caused a 35% increase in the ^3 H-D-aspartate absorption.

[2] = Toxicity (LD50) in the mouse; conditions: in vivo
Text: As the examples investigated show considerable differences in toxicity compared to the standard substances, the LD50 values are also listed in Table 6,

[3] = system: NMDA-induced cramps; assay: Inhibition of NMDA-induced cramps in the mouse; format: in vivo; conditions: po, 1 h; for inhibition in vivo at 0.3 mg/kg: 0.3 mg/kg p.o.
Method: 4. Inhibition of NMDA-induced-cramps in the mouse
The examples listed below show neuroprotective activity in that they antagonize the cramps induced by NMDA (N-methyl-(D)-aspartate). To this end, intravenous injections of 20-30 mg/kg of NMDA are carried out on a male NMRI (Naval Medical Research Institute) mice of 22-24 g body weight, which leads to stereotypes, clonic cramps and in the majority of cases to mortality. In order to investigate an NMDA-antagonist activity of the test substances, they are administered orally one hour before NMDA. The animals are then observed for the abovementioned symptoms for up to 60 min. The number of animals with clonic cramps and the incidence of mortality, expressed in percent change compared to the control group, is regarded as the evaluation criterion.

[4] = system: CA1 pyramidal cells of the hippocampus after forebrain ischemia; assay: Neuroprotection after forebrain ischemia in the gerbil; conditions: for Cell necroses (% change) / Behavior score (% change): 15 minutes before ischemia; for Cell necroses (% change): histopathological score CA1, treated versus control group; for Behavior score (% change): treated versus control group
Method: A 5-minutes' ischemia of the forebrain with subsequent recirculation is produced in 20 male Mongolian gerbils under halothane anesthesia by bilateral closure of the corotid artery by means of aneurysm clips. 7 days later, the animals are decapitated under halothane anesthesia, the brains are fixed by immersion in Carnoy solution and the extent of neuron damage in the CA1 region of the hippocampus is determined "blind" with the aid of a 5-stage histopathological score. The test substance is administered intraperitoneally or orally 15 minutes before ischemia to each group of 10 gerbils. One ischemic control group, also of 10 animals, is treated with the respective solvents per test substance.

[5] = preparation concentration 500 μM
[6] = 50 mg/kg p.o., one hour before NMDA i.v., change compared to control group, read-out: Inhibition of convulsions
[7] = preparation concentration 10 μM
[8] = preparation concentration 1000 μM (1 mM)
[9] = read-out: Inhibition of mortality
[10] = preparation concentration 100 μM
[11] = one hour before NMDA i.v., change compared to control group, read-out: Inhibition of convulsions
[12] = one hour before NMDA i.v., change compared to control group, read-out: Inhibition of mortality

With NCc1cc(CCC(=O)NCC(=O)O)no1 [Example 24, N-(5-Aminomethylisoxazol-3-yl)propionylglycine] the “Stimulation of the 3H-D-aspartate absorption, Stimulation (%)” value (“Stimulation … (%)” below) [1, 5] was 28%.

In the case of CCOP(C)(=O)CCc1cc(CN)on1 (centres unmarked) [Example 10, ethyl 2-(5-aminomethylisoxazole-3-yl)ethyl-2-(P-methyl)phosphinic acid hydrochloride], the LD50 ([2]; iv) was > 100 mg/kg, the “Stimulation … (%)” value [1, 5] was 23% and the inhibition in vivo at 50 mg/kg [3, 6] was 10%. For the same compound, the inhibition in vivo at 50 mg/kg ([3]; 50 mg/kg p.o., one hour before NMDA i.v., change compared to control group, read-out: Inhibition of mortality) was 70%.

For C[C@H]1C[C@@H](OC(=O)CCc2cc(C[N+](C)(C)C)on2)CC(C)(C)C1 (relative stereo) [Example 58, cis-(3,3,5)-trimethylcyclohexyl-5-trimethylammoniomethylisoxazole-3-propionate iodide], the “Stimulation … (%)” value [1, 7] was 35%.

For CN(C)C(=O)C1=NOC(CN)C1 (centres unmarked) [Example 39], the “Stimulation … (%)” value [1, 8] was 14%.

With CN(C)Cc1cc(CCC(=O)O)no1 [Example 15, 5-Dimethylaminomethylizoxazole-3-propionic acid] the LD50 ([2]; iv) was > 100 mg/kg, the inhibition in vivo at 50 mg/kg [3, 6] was 40% and the inhibition in vivo at 50 mg/kg [3, 9] was 100%.

In the case of Nc1ncnc2c1ncn2[C@@H]1O[C@H](COP(=O)(O)OP(=O)(O)OP(=O)(O)O)[C@@H](O)[C@H]1O [ATP, Adenosine triphosphate, reference compound], the “activity on 3H-D-aspartate absorption (in words)” value ([1]; at a lower concentration than 500 μm) was “inactive”, the “Stimulation … (%)” value [1, 5] was 31% and the “Stimulation … (%)” value [1, 8] was 35%. For the same compound, the “Stimulation … (%)” value ([1]; preparation concentration 2000 μM) was 57% and the “Stimulation … (%)” value ([1]; preparation concentration 5000 μM) was 121%.

With C[C@H]1C[C@@H](OC(=O)CCc2cc(CN)on2)CC(C)(C)C1 (relative stereo) [Example 9, cis-(3,3,5)trimethylcyclohexyl 5-aminomethylisoxazole-3-propionate toluene-4-sulfonate] the “Stimulation … (%)” value [1, 10] was 19%.

With CC(C)(N)c1cc(CCC(=O)O)no1 [Example 13, 5-(1-Amino-1-methylethyl)isoxazole-3-propionic acid] the “Stimulation … (%)” value [1, 5] was 33%.

For NCC1CC(CCC(=O)O)=NO1 (single isomer, unassigned) [Example 31, 5-Aminomethyl-2-isoxazoline-3-propionic acid, (+)-enantiomer], the “Stimulation … (%)” value [1, 5] was 21%.

In the case of Cl.NCc1cc(CCC(N)=O)no1 [Example 50, 5-aminomethylisoxazole-3-propionamide hydrochloride], the “Stimulation … (%)” value [1, 5] was 15%.

In the case of CC(=O)NCC1CC(CCC(=O)O)=NO1 (centres unmarked) [Example 32], the LD50 ([2]; iv) was > 100 mg/kg, the “Stimulation … (%)” value [1, 10] was 19% and the inhibition in vivo at 50 mg/kg [3, 6] was 30%. It also gave an inhibition in vivo at 50 mg/kg [3, 9] of 50%.

For Cl.O=C(C1=NOC(CN2CCCC2)C1)N1CCCC1 (centres unmarked) [Example 3, 5-Pyrrolidinomethyl-3-pyrrolidinocarbonyl-2-isoxazoline hydrochloride], the “Stimulation … (%)” value [1, 5] was 20%.

With CCOC(=O)CCc1cc(CN)on1.Cl [Example 6, ethyl 5-aminomethylisoxazole-3-propionate hydrochloride] the LD50 ([2]; iv) was > 100 mg/kg, the “Stimulation … (%)” value [1, 7] was 17% and the inhibition in vivo at 50 mg/kg [3, 6] was 20%. It also gave an inhibition in vivo at 50 mg/kg [3, 9] of 40%.

In the case of Cl.NCc1cc(CCO)no1 [Example 25, 5-Aminomethyl-3-(2-hydroxyethyl)isoxazole hydrochloride], the “Stimulation … (%)” value [1, 5] was 20%.

For COC(=O)CCc1cc(C=NO)no1 [Example 55, methyl-3-hydroxyliminomethyl-isoxazole-5-propionate], the inhibition in vivo at 50 mg/kg [3, 6] was 33% and the inhibition in vivo at 50 mg/kg [3, 9] was 100%.

For NCC1CC(CCC(=O)O)=NO1 (racemic) [Example 29, 5-Aminomethyl-2-isoxazoline-3-propionic acid, racemate], the LD50 ([2]; iv) was > 200 mg/kg and the inhibition in vivo at 50 mg/kg [3, 6] was 20%.

With N.N.O=C(O)CCc1cc(CNCc2cc(CCC(=O)O)no2)on1 [Example 26, Bis(3-[2-carboxyethyl]isoxazol-5-ylmethyl)amine diammonium salt] the LD50 ([2]; iv) was > 100 mg/kg and the inhibition in vivo at 50 mg/kg [3, 6] was 40%.

O=C(O)CCc1cc(CNC(=O)CCC[N+](=O)[O-])on1 [Example 53] gave an inhibition in vivo at 50 mg/kg [3, 6] of 33%.

CC(C)[C@H]1CC[C@H](C)C[C@@H]1OC(=O)CCC1=NOC(CN)C1 (single isomer, unassigned; (+)) [Example 27, (+)-Menthyl 5-aminomethyl-2-isoxazoline-3-propionate toluene-4-sulfonate] gave an LD50 ([2]; iv) of 50 to 100 mg/kg and an inhibition in vivo at 50 mg/kg [3, 6] of 20%.

For C[C@]12N[C@H](Cc3ccccc31)c1ccccc12 [MK 801, (+)-5-methyl-10,11-dihydro-5H-dibenzo[a,d]cyclohept-5-en-10-imine, reference compound], the LD50 ([2]; iv) was 30 to 60 mg/kg, the inhibition in vivo at 0.3 mg/kg [3, 11] was 60% and the inhibition in vivo at 0.3 mg/kg [3, 12] was 60%.

For NCc1cc(=O)[nH]o1 [Muscimol, 5-(aminomethyl)-3(2H)-isoxazolone, reference compound], the “Cell necroses (% change)” value ([4]; 5 mg/kg i.p.) was -74 % change, the “Behavior score (% change)” value ([4]; 5 mg/kg i.p.) was “+41 % change” and the “post-ischemic neurological symptoms, behavior score (in words)” value ([4]; summary of Table 7) was “distinctly more negative post-ischemic symptoms in the behavior score”. For the same compound, the “protection of cerebral nerve cells / dying cells (in words)” value ([4]; summary of Table 7) was “reduction in the dying cells”, the LD50 ([2]; iv) was 3 to 10 mg/kg and the inhibition in vivo at 0.3 mg/kg [3, 11] was 40%. It also gave an inhibition in vivo at 0.3 mg/kg [3, 12] of 60%.

Work on CC(C)[C@@H]1CC[C@@H](C)C[C@H]1OC(=O)CCC1=NOC(CN)C1 (single isomer, unassigned; (-)) [Example 28, (-)-Menthyl 5-aminomethyl-2-isoxazoline-3-propionate toluene-4-sulfonate] yielded an inhibition in vivo at 50 mg/kg [3, 6] of 20%.

For O=C(O)CCc1cc(CNCc2ccccc2)on1 [Example 14, 5-Benzylaminomethylisoxazole-3-propionic acid], the LD50 ([2]; ip) was > 300 mg/kg, the “Stimulation … (%)” value [1, 5] was 19% and the inhibition in vivo at 50 mg/kg [3, 6] was 40%.

For CP(=O)(O)CCc1cc(CN)on1 [Example 16, 2-(5-Aminomethylisoxazol-3-yl)ethyl-2-(-methyl)phosphinic acid hydrochloride], the “Cell necroses (% change)” value ([4]; 50 mg/kg p.o.) was -27 % change, the “Behavior score (% change)” value ([4]; 50 mg/kg p.o.) was 0 % change and the “Stimulation … (%)” value [1, 8] was 19%. For the same compound, the inhibition in vivo at 50 mg/kg ([3]; read-out: Inhibition of convulsions) was 30% and the inhibition in vivo at 50 mg/kg [3, 9] was 30%.

In the case of N=C(N)NCc1cc(CCC(=O)O)no1 [Example 23, 5-Guanidinomethylisoxazole-3-propionic acid], the LD50 ([2]; ip) was > 300 mg/kg and the inhibition in vivo at 50 mg/kg [3, 6] was 40%.

In the case of CC(=O)NCc1cc(CCC(=O)O)no1 [Example 17, 5-Acetamidomethylisoxazole-3-propionic acid], the LD50 ([2]; ip) was > 300 mg/kg, the inhibition in vivo at 30 mg/kg ([3]; 30 mg/kg p.o., one hour before NMDA i.v., change compared to control group, read-out: Inhibition of convulsions) was 30% and the inhibition in vivo at 30 mg/kg [3, 9] was 100%.
